Results taken from patent US6346622B1, “2-substituted 1,2-benzisothiazole derivatives and their use as serotonin antagonists (5-HT1A, 5HT1B and 5-HT1D)” (Abbott Laboratories, priority 1997, dated 2002).
Where a name gives a salt, the structure may show the parent alone.

Experiments:
[1] = tested on: serotonin release in the cortex; settings: after systemic administration; cited from earlier work
[2] = tested on: serotonin release in the dorsal raphe nucleus; settings: rat; together with paroxetine; cited from earlier work

Structure (SMILES)	melting point [°C]	serotonin release in the cortex [1]	effect of paroxetine on serotonin release in the dorsal raphe nucleus [2]
CC1(C)c2ccc([N+](=O)[O-])cc2S(=O)(=O)N1CCCN1CCN(c2cccc3ccccc23)CC1	203	–	–
CC1(C)c2ccccc2S(=O)(=O)N1CCCN1CCN(c2ccc(Cl)c3ccccc23)CC1	151	–	–
COc1ccccc1N1CCN(CC(O)CN2C(C)(C)c3ccccc3S2(=O)=O)CC1 (stereo not drawn)	160	–	–
CCC1(CC)c2ccccc2S(=O)(=O)N1CCCN1CCN(c2cccc3ccccc23)CC1	179	–	–
CC1(C)c2ccccc2S(=O)(=O)N1CCCN1CCN(c2ccc3ccccc3n2)CC1	63	–	–
C=C(CN1CCN(c2cccc3ccccc23)CC1)CN1C(C)(C)c2ccccc2S1(=O)=O	193	–	–
CC1(C)c2ccc(-n3cccc3)cc2S(=O)(=O)N1CCCN1CCN(c2cccc3ccccc23)CC1 (as salt: hydrochloride)	269	–	–
Cc1cccc(N2CCN(CCN3C(C)(C)c4ccccc4S3(=O)=O)CC2)c1C (as salt: hydrochloride)	291	–	–
CC1(C)c2ccccc2S(=O)(=O)N1CCN1CCN(c2cccc3c2CCC3)CC1 (as salt: hydrochloride)	271	–	–
CC1(C)c2ccccc2S(=O)(=O)N1CCCN1CCN(c2ncccn2)CC1 (as salt: hydrochloride)	263	–	–
COc1ccc(N2CCN(CCN3C(C)(C)c4ccccc4S3(=O)=O)CC2)cc1 (as salt: hydrochloride)	207	–	–
CC1(C)c2ccccc2S(=O)(=O)N1CCCN1CCN(c2nc(-c3ccccc3)nc3ccccc23)CC1 (as salt: hydrochloride)	269	–	–
Cc1ccc(C)c(N2CCN(CCCN3C(C)(C)c4ccccc4S3(=O)=O)CC2)c1 (as salt: hydrochloride)	218	–	–
CC1(C)c2ccccc2S(=O)(=O)N1CCN1CCN(c2ccccc2C#N)CC1 (as salt: hydrochloride)	228	–	–
CC1(C)c2ccccc2S(=O)(=O)N1CCN1CCN(c2ncnc3ccccc23)CC1 (as salt: hydrochloride)	178	–	–
CC1(C)c2ccccc2S(=O)(=O)N1CCN1CCN(c2cccc3ccccc23)CC1 (as salt: hydrochloride)	282	–	–
COc1ccc(NC(=O)c2ccc(-c3ccc(-c4noc(C)n4)cc3C)cc2)cc1N1CCN(C)CC1 [GR 127 935]	–	reduces serotonin release	potentiated
